Data reported in patent US7285567B2, “Halogenated benzamide derivatives” (Romark Laboratories, L.C., priority 2005, dated 2007).
Like-named read-outs stand apart in the source and are kept apart here.

Key:
[1] = system: H3N2 influenza virus, type A; assay: Multiple cycle CPE inhibition assay on MDCK cell monolayers; type: cell-based; conditions: 0% EMEM + Hepes + Trypsin
Description: (§1) EC50 (μg/mL) values for 2-(acetolyloxy)-3-methyl-N-(5-bromo-2-thiazolyl)benzamide (RM4803), 2-(acetolyloxy)-3-methyl-N-(5-chloro-2-thiazolyl)benzamide (RM4804), and 2-(acetolyloxy)-3-methoxy-N-(5-bromo-2-thiazolyl)benzamide (RM4806), on Human Rhinovirus Type 39 (HRV-39), and H3N2 influenza virus, type A, using a multiple cycle CPE inhibition assay on OH-I Hela and Madin Darby Canine Kidney (MDCK) cell monolayers, respectively, were measured by microscopic and spectrophotometric methods. Pirodavir and Oseltamivir were included as positive controls.

[2] = system: Human Rhinovirus Type 39 (HRV-39); assay: Multiple cycle CPE inhibition assay on OH-I Hela cell monolayers; type: cell-based; conditions: Rhinovirus A, HRV39, HRV-39, OH-Hela, 2% McCoys + Hepes Buffer
Description: as §1

[3] = microscopic reading, read-out: EC50, Microscopic
[4] = spectrophotometric reading, read-out: EC50, Spectrophotometer

CC(=O)Oc1c(C)cccc1C(=O)Nc1ncc(Br)s1 [RM-4803, 2-(acetolyloxy)-3-methyl-N-(5-bromo-2-thiazolyl)benzamide]
EC50 [1, 3]: 0.45 µg/mL
EC50 [1, 4]: 0.18 µg/mL
EC50 [2, 3]: 0.06 µg/mL
EC50 [2, 4]: 0.03 µg/mL
